In patent US20060239988A1, “Neuronal regeneration and compound administration methods” (priority 2003, published 2006):

Legend:
importin-beta [1] = target: importin-beta (Homo sapiens, UniProt Q14974)
Procedure: GST alone was used as a negative control.
(§1) Pull-down assays and co-immunoprecipitations: Sciatic nerve axoplasm (500 micrograms) was pre-cleared for 1 hour with 80% protein G-Sepharose (Amersham Bioscience). Following overnight incubation with primary antibody, complexes were incubated on protein-G beads for 2 hours, washed extensively and eluted by boiling in SDS-PAGE sample buffer before loading on gels for Western blot analysis. For co-immunoprecipitation in the presence of competitors, 2 micromolar NLS (SEQ ID NO: 2) or reverse-NLS (SEQ ID NO: 3) peptide was added to the axoplasm for overnight incubation at 4 degrees centigrade. For direct pull-downs, GST-pERK (0.5 microgram) or importin-beta (1 microgram) was equilibrated in PBS or NTB and added to 500 microgram aliquots of axoplasm from different post-lesion times. […] All pull-downs were washed twice with 0.2 molar NaCl in PBS or NTB and twice again with PBS or NTB before elution in SDS-PAGE sample buffer for loading on gels.

pERK2 = pERK2 (Homo sapiens, UniProt P28482); conditions: in-vitro, increased at calcium up to 1 millimolar
Procedure: as §1

alkaline phosphatase = conditions: identical concentrations of vimentin
Procedure: (§2) Alkaline phosphatase (AP; 2 units; Roche, Mannheim, Germany) or axoplasm from injured nerve (100 micrograms) was then added for an additional 30 minutes. Complexes were purified over Nickel-NTA-Agarose followed by Western blot analysis for pERK. Alkaline phosphatase activity was verified with the synthetic substrate p-nitrophenyl phosphate (pNPP, Catalog # S0942, Sigma) dissolved in 0.1 molar glycine buffer (0.1 molar glycine, 1 millimolar MgCl2, 1 millimolar ZnCl2; pH 10.4) for a stock solution of 1 mg/ml. […] The yellow hydrolysis product was quantified spectrophotometrically at 405 nm.

pERK = pERK (Homo sapiens, UniProt P28482)
Procedure: as §2

importin-beta [2] = conditions: CHX 10 micrograms/ml, ActD 5 micrograms/ml
Procedure: Electrophoretic gel autoradiography: In order to evaluate whether importin-beta is synthesized in axons, sciatic nerve segments were incubated for 6 hours in Met/Cys-deficient DMEM medium (Gibco-BRL) containing 1 mCi/ml of [35]S-Met/Cys (Amersham Bioscience), with or without 10 micrograms/ml of the translation inhibitor cycloheximide (CHX, Sigma) or 5 micrograms/ml of the transcription inhibitor actinomycin D (ActD, Sigma), followed by extrusion of the axoplasm into nuclear transport buffer. The extruded axoplasm was immunoprecipitated with anti importin-beta antibody, and the immunoprecipitate was resolved via 10% SDS-PAGE. Following electrophoresis, the gel was dried and analyzed via autoradiography using FujiFilm BAS2500.

vimentin and peripherin = conditions: calpeptin 100 micromolar applied to the nerve by injection
pERK with vimentin = pERK with vimentin (Homo sapiens, UniProt P28482); conditions: EGTA 100 millimolar
Procedure: as §1

pERK, sequence (P28482 whole entry): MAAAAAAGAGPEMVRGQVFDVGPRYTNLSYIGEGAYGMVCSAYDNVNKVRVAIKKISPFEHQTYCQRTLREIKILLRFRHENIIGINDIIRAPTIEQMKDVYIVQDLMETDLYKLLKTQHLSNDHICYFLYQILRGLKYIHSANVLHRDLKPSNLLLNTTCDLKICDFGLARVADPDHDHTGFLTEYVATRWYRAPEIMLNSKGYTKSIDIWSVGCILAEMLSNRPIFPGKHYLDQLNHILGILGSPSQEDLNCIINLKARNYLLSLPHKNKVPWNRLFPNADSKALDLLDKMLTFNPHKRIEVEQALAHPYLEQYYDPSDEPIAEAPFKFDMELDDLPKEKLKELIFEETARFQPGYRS
pERK, sequence (Q14974 whole entry partner): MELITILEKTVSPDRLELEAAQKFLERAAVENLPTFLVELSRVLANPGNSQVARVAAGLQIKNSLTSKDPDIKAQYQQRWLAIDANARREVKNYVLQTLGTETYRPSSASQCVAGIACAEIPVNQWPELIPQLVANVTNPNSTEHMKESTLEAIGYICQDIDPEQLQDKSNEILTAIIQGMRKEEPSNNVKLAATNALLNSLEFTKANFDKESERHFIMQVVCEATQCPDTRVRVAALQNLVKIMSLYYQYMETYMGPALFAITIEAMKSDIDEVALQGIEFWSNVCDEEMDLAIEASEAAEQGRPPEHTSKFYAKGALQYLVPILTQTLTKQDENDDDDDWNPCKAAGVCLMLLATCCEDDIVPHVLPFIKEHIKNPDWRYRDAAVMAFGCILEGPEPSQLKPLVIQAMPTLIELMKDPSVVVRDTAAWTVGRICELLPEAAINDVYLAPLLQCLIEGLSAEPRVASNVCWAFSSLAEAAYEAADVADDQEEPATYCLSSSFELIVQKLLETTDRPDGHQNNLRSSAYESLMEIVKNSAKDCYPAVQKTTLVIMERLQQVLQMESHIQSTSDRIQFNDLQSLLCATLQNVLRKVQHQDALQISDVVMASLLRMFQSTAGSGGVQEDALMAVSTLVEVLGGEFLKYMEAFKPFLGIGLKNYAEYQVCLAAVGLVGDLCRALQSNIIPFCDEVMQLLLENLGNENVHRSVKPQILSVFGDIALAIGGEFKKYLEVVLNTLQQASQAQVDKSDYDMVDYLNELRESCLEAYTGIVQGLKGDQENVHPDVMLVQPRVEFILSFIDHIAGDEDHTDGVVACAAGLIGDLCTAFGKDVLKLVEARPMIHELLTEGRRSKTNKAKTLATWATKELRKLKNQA
pERK, sequence (P02544 whole entry partner): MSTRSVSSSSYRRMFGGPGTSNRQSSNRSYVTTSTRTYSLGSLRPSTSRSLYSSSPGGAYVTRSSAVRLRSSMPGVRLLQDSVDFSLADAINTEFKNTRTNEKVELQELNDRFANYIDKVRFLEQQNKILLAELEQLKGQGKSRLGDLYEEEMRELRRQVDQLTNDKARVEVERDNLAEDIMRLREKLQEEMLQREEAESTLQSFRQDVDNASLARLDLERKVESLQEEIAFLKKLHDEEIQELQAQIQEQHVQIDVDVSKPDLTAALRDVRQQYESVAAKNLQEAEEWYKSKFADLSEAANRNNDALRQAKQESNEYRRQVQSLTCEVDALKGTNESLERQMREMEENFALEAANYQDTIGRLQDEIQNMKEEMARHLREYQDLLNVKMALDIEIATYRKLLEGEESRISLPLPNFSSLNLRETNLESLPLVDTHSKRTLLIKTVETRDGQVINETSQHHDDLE
importin-beta (Homo sapiens, UniProt Q14974), sequence (Q14974 whole entry): as the sequence (Q14974 whole entry partner) above
importin-beta (Homo sapiens, UniProt Q14974), sequence (P02544 whole entry partner): as the sequence (P02544 whole entry partner) above
pERK2, sequence (P28482 whole entry): as the sequence (P28482 whole entry) above
pERK2, sequence (P02544 whole entry partner): as the sequence (P02544 whole entry partner) above
pERK with vimentin, sequence (P28482 2-360): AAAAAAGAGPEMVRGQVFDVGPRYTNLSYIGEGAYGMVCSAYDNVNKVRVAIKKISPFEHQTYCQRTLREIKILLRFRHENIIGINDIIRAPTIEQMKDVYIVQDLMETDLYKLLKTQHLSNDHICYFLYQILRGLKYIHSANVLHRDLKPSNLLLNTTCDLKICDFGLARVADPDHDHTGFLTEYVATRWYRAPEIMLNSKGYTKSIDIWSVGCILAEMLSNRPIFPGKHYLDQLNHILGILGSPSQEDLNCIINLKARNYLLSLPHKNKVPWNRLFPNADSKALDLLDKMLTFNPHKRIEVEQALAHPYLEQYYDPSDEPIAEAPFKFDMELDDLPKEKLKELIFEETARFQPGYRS

vimentin
effect of changing calcium concentrations on the vimentin-importin-beta interaction (importin-beta [1]): little or no effect | pull-down with GST-importin-beta (importin-beta [1]; did not precipitate with GST alone): readily pulled down | vimentin binding to pERK2 (pERK2): calcium dependent | hydrolysis of p-nitrophenyl phosphate by alkaline phosphatase (alkaline phosphatase): no effect | calcium dependence of protection of pERK2 from dephosphorylation (pERK; 2 micrograms vimentin, varied calcium): calcium dependent manner | protection of pERK2 from the phosphatases (pERK; three-fold to six-fold molar ratio to pERK, alkaline phosphatase or axoplasm): almost complete protection

C[C@@H]1C[C@@H]([C@H](O)CC2CC(=O)NC(=O)C2)C(=O)[C@@H](C)C1 [CHX, cycloheximide]
formation of radioactive importin-beta protein (importin-beta [2]): not formed

CCCC[C@@H](C=O)NC(=O)[C@H](CC(C)C)NC(=O)OCc1ccccc1 [calpeptin]
lower molecular mass bands of vimentin and peripherin (vimentin and peripherin): disappeared

actinomycin D [ActD]
formation of radioactive importin-beta protein (importin-beta [2]): merely reduced

EGTA
interaction of GST-pERK with vimentin in axoplasm (pERK with vimentin): blocked
